Assay [1] deals with human Farnesoid X receptor ligand-binding domain/Gal4 DNA binding domain chimera (Homo sapiens (Human), UniProt Q96RI1). The assay can be described thus: Cell-based assay of FXR activation (FXR-UAS-bla HEK 293T beta-lactamase reporter). To be noted: cellular FXR beta-lactamase reporter assay; for Emax: HEK-293T, extent of activation relative to GW4064, read-out: % Efficacy; for EC50: FXR-UAS-bla HEK 293T cells, 16 h, pEC50 = -log EC50. How it is done:
FXR activation was measured using a cell line and procedure obtained from Life Technologies (Cat # K1691). FXR-UAS-bla HEK 293T cells contain a human Farnesoid X receptor ligand-binding domain/Gal4 DNA binding domain chimera stably integrated into the CellSensor® UAS-bla HEK 293T cell line. The CellSensor® UAS-bla HEK 293T contains a beta-lactamase reporter gene under control of a UAS response element stably integrated into HEK 293T cells. Activation of FXR by bound ligands results in transcriptional activation of the beta-lactamase reporter gene, which is detected via assay of beta-lactamase activity.
Cells are harvested and diluted into assay medium containing phenol red-free DMEM supplemented with 2% Charcoal-stripped FBS, pyruvate, non-essential amino acids. Cells are then transferred to a 384 well assay plate. Test compounds are dissolved in DMSO and a 3-fold serial dilution series is generated, then further diluted into assay medium. Compounds in assay medium are added to cells in the 384 well plate and allowed to incubate 16 h at 37 C in the presence of 5% CO2.
A FRET-based […] is loaded into cells as its acetomethoxy ester. Intracellular esterases liberate free CCF4, a cephalosporin core linking 7-hydroxycoumarin to fluorescein. In the presence of beta-lactamase activity produced in the presence of FXR agonists, cleavage of CCF4 spatially separates the two dyes and disrupts FRET, so that exciting the coumarin at 409 nm now produces a blue fluorescence signal at 447 nm. The change in FRET signal is plotted against the test compound concentration and fit to a 3-parameter logistical equation. The concentration required to produce 50% activation is expressed as pEC50 (−log EC50), and the extent of activation is expressed relative to GW4064 as % activation.

The target of assay [2] is ligand binding domain of human FXR (Homo sapiens (Human), UniProt Q96RI1). Description: FXR ligand binding assay (LanthaScreen TR-FRET, SRC2-2 peptide recruitment). The note with it: for pEC50 / EC50: -log EC50, concentration required to produce 50% activation; for Emax: extent of activation relative to GW4064, read-out: % Efficacy.
Sequence of ligand binding domain of human FXR (Q96RI1 262-486): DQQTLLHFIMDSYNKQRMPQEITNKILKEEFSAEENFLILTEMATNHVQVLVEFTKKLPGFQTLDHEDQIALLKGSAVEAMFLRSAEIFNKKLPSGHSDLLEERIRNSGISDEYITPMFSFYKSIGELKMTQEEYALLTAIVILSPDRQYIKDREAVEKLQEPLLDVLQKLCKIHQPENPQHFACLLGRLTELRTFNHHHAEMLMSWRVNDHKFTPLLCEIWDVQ

Sequence of human Farnesoid X receptor ligand-binding domain/Gal4 DNA binding domain chimera (Q96RI1 262-486, stated change not applied): as the sequence (Q96RI1 262-486) above
Sequence of human Farnesoid X receptor ligand-binding domain/Gal4 DNA binding domain chimera (P04386 1-147 partner): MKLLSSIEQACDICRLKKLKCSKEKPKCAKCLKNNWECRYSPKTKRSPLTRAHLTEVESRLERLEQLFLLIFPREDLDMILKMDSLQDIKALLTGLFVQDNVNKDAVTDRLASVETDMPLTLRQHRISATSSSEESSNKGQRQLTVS

Broadly, the pEC50 is −log10 of the EC50, conventionally taken in molar units. High values mean a low EC50, low ones a high EC50. As for `CCOc1cc(C(=O)O)cc2sc(N3C[C@@H]4C[C@H]3C[C@H]4OCc3c(-c4c(Cl)cccc4Cl)noc3C3CC3)nc12` [Compound I-18, 2-[(1S,4S,5R)-5-{[5-cyclopropyl-3-(2,6-dichlorophenyl)-1,2-oxazol-4-yl]methoxy}-2-azabicyclo[2.2.1]heptan-2-yl]-4-ethoxy-1,3-benzothiazole-6-carboxylic acid], in assay [1], the Emax was 109% and the EC50 is 0.1 nM. In assay [2], the pEC50 is on record as 8.8 and the Emax is 135%.
For `O=C(O)c1cc(F)c2nc(N3C[C@@H]4C[C@H]3C[C@H]4OCc3c(-c4ccccc4C(F)(F)F)noc3C3CC3)sc2c1` [Compound I-19, 2-[(1S,4S,5R)-5-([5-cyclopropyl-3-[2-(trifluoromethyl)phenyl]-1,2-oxazol-4-yl]methoxy)-2-azabicyclo[2.2.1]heptan-2-yl]-4-fluoro-1,3-benzothiazole-6-carboxylic Acid] the same measures were 114%, 2 nM, 8 and 178%.
With `O=C(O)c1cc(OC(F)(F)F)c2nc(N3C[C@@H]4C[C@H]3C[C@H]4OCc3c(-c4ccccc4C(F)(F)F)noc3C3CC3)sc2c1` [Compound I-20, 2-[(1S,4S,5R)-5-({5-cyclopropyl-3-[2-(trifluoromethyl)phenyl]-1,2-oxazol-4-yl}methoxy)-2-azabicyclo[2.2.1]heptan-2-yl]-4-(trifluoromethoxy)-1,3-benzothiazole-6-carboxylic Acid], in assay [1], the Emax stood at 113% and the EC50 was 0.631 nM. Further, in assay [2], the pEC50 amounted to 8.4 and the Emax was 191%.
With `O=C(O)c1cc(F)c2nc(N3C[C@@H]4C[C@H]3C[C@H]4OCc3c(C4CCCCC4)noc3C3CC3)sc2c1` [Compound I-21, 2-[(1S,4S,5R)-5-[(3-cyclohexyl-5-cyclopropyl-1,2-oxazol-4-yl)methoxy]-2-azabicyclo[2.2.1]heptan-2-yl]-4-fluoro-1,3-benzothiazole-6-carboxylic Acid], the Emax in assay [1] amounted to 110%; in assay [2] it was 123%. The EC50 in assay [1] is 79.4 nM; in assay [2], 100 nM.
The corresponding values for `O=C(O)c1cc(OC(F)(F)F)c2nc(N3C[C@@H]4C[C@H]3C[C@H]4OCc3c(C4CCCCC4)noc3C3CC3)sc2c1` [Compound I-22, 2-[(1S,4S,5R)-5-[(3-cyclohexyl-5-cyclopropyl-1,2-oxazol-4-yl)methoxy]-2-azabicyclo[2.2.1]heptan-2-yl]-4-(trifluoromethoxy)-1,3-benzothiazole-6-carboxylic Acid] are 113%, 85%, 126 nM and 316 nM.
On to `O=C(O)c1cc(OC(F)(F)F)c2nc(N3C[C@@H]4C[C@H]3C[C@H]4OCc3c(C4CCOCC4)noc3C3CC3)sc2c1` [Compound I-23, 2-[(1S,4S,5R)-5-{[5-cyclopropyl-3-(oxan-4-yl)-1,2-oxazol-4-yl]methoxy}-2-azabicyclo[2.2.1]heptan-2-yl]-4-(trifluoromethoxy)-1,3-benzothiazole-6-carboxylic Acid], for which, in assay [1], the Emax is 100% and the EC50 was 631 nM. For the same compound, in assay [2], the negative-log EC50 (pEC50) turned out to be 5.5 and the Emax was determined as 85%.
For `O=C(O)c1cc(F)c2nc(N3C[C@@H]4C[C@H]3C[C@H]4OCc3c(-c4c(Cl)cccc4Cl)noc3C3(F)CC3)sc2c1` [Compound I-24, 2-[(1S,4S,5R)-5-{[3-(2,6-dichlorophenyl)-5-(1-fluorocyclopropyl)-1,2-oxazol-4-yl]methoxy}-2-azabicyclo[2.2.1]heptan-2-yl]-4-fluoro-1,3-benzothiazole-6-carboxylic Acid] the same measures were 102%, 0.631 nM, 7.9 and 180%.
The corresponding values for `O=C(O)c1cc(OC(F)(F)F)c2nc(N3C[C@@H]4C[C@H]3C[C@H]4OCc3c(-c4c(Cl)cccc4Cl)noc3C3(F)CC3)sc2c1` [Compound I-25, 2-[(1S,4S,5R)-5-{[3-(2,6-dichlorophenyl)-5-(1-fluorocyclopropyl)-1,2-oxazol-4-yl]methoxy}-2-azabicyclo[2.2.1]heptan-2-yl]-4-(trifluoromethoxy)-1,3-benzothiazole-6-carboxylic Acid] are 102%, 0.398 nM, 8.4 and 172%.
Turning to `Fc1cc(-c2nn[nH]n2)cc2sc(N3C[C@@H]4C[C@H]3C[C@H]4OCc3c(-c4c(Cl)cccc4Cl)noc3C3CC3)nc12` [Compound I-26, 2-[(1S,4S,5R)-5-{[5-cyclopropyl-3-(2,6-dichlorophenyl)-1,2-oxazol-4-yl]methoxy}-2-azabicyclo[2.2.1]heptan-2-yl]-4-fluoro-6-(2H-1,2,3,4-tetrazol-5-yl)-1,3-benzothiazole], in assay [1], the Emax amounted to 106% and the EC50 was 25.1 nM. Further, in assay [2], the pEC50 amounted to 8.4 and the Emax worked out at 137%.
Consider `FC(F)(F)Oc1cc(-c2nn[nH]n2)cc2sc(N3C[C@@H]4C[C@H]3C[C@H]4OCc3c(-c4c(Cl)cccc4Cl)noc3C3CC3)nc12` [Compound I-27, 2-[(1S,4S,5R)-5-{[5-cyclopropyl-3-(2,6-dichlorophenyl)-1,2-oxazol-4-yl]methoxy}-2-azabicyclo[2.2.1]heptan-2-yl]-4-trifluoromethoxy-6-(2H-1,2,3,4-tetrazol-5-yl)-1,3-benzothiazole], for which, in assay [1], the Emax amounted to 94% and the EC50 is 2 nM. Further, the Emax in assay [2] amounted to 130%.
For `CS(=O)(=O)NC(=O)c1cc(F)c2nc(N3C[C@@H]4C[C@H]3C[C@H]4OCc3c(-c4c(Cl)cccc4Cl)noc3C3CC3)sc2c1` [Compound I-28, 2-[(1S,4S,5R)-5-{[5-cyclopropyl-3-(2,6-dichlorophenyl)-1,2-oxazol-4-yl]methoxy}-2-azabicyclo[2.2.1]heptan-2-yl]-4-fluoro-N-methanesulfonyl-1,3-benzothiazole-6-carboxamide], in assay [1], the Emax was 122% and the EC50 is 2 nM. Also, in assay [2], the pEC50 came to 8.9 and the Emax is 153%.
`CCCS(=O)(=O)NC(=O)c1cc(F)c2nc(N3C[C@@H]4C[C@H]3C[C@H]4OCc3c(-c4c(Cl)cccc4Cl)noc3C3CC3)sc2c1` [Compound I-29, 2-[(1S,4S,5R)-5-{[5-cyclopropyl-3-(2,6-dichlorophenyl)-1,2-oxazol-4-yl]methoxy}-2-azabicyclo[2.2.1]heptan-2-yl]-4-fluoro-N-(propane-1-sulfonyl)-1,3-benzothiazole-6-carboxamide]: in assay [1], the Emax was 118% and the EC50 was 1.58 nM. For the same compound, in assay [2], the negative logarithm of the EC50 (pEC50) is 7.8 and the Emax is 194%.
With `O=C(NS(=O)(=O)C1CC1)c1cc(F)c2nc(N3C[C@@H]4C[C@H]3C[C@H]4OCc3c(-c4c(Cl)cccc4Cl)noc3C3CC3)sc2c1` [Compound I-30, N-(cyclopropanesulfonyl)-2-[(1S,4S,5R)-5-{[5-cyclopropyl-3-(2,6-dichlorophenyl)-1,2-oxazol-4-yl]methoxy}-2-azabicyclo[2.2.1]heptan-2-yl]-4-fluoro-1,3-benzothiazole-6-carboxamide], in assay [1], the Emax stood at 114% and the EC50 was 2.51 nM. Moreover, in assay [2], the negative logarithm of the EC50 (pEC50) stood at 8.6 and the Emax worked out at 160%.
As to `CS(=O)(=O)NC(=O)c1cc(F)c2nc(N3C[C@@H]4C[C@H]3C[C@H]4OC(=O)c3c(-c4c(Cl)cccc4Cl)noc3C3CC3)sc2c1` [Compound I-31, (1S,4S,5R)-2-[4-fluoro-6-(methanesulfonylcarbamoyl)-1,3-benzothiazol-2-yl]-2-azabicyclo[2.2.1]heptan-5-yl 5-cyclopropyl-3-(2,6-dichlorophenyl)-1,2-oxazole-4-carboxylate], in assay [1], the Emax was found to be 115% and the EC50 was 158 nM. Moreover, in assay [2], the pEC50 is given as 7.4 and the Emax turned out to be 117%.
With `CCCS(=O)(=O)NC(=O)c1cc(F)c2nc(N3C[C@@H]4C[C@H]3C[C@H]4OC(=O)c3c(-c4c(Cl)cccc4Cl)noc3C3CC3)sc2c1` [Compound I-32, (1S,4S,5R)-2-{4-fluoro-6-[(propane-1-sulfonyl)carbamoyl]-1,3-benzothiazol-2-yl}-2-azabicyclo[2.2.1]heptan-5-yl 5-cyclopropyl-3-(2,6-dichlorophenyl)-1,2-oxazole-4-carboxylate], in assay [1], the Emax is 110% and the EC50 is 126 nM. Further, in assay [2], the negative-log EC50 (pEC50) was 7.6 and the Emax was found to be 148%.
